Experimental data taken from the supplement of paper PMC10307832.

Tests used:
Experiment in all cases: relative viability (nuclei count vs DMSO), 5 days (fraction); higher = more cells survive
[1] = compound: CN1CCC(CNc2ccc3ncc(-c4cccc(OC(F)(F)F)c4)n3n2)CC1 [SGI-1776] + CC(C)C[C@H](NC(=O)[C@H](Cc1ccccc1)NC(=O)c1cnccn1)B(O)O [Bortezomib] (partner 0.002 µM)
Procedure, shortened: (§1)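 After 5 days of treatment, lung cancer cells in 1536-well plates were fixed and stained in a single step (final 0.05% Triton X-100, 1% formaldehyde, 1 ug/ml Hoechst) and their nuclei counted on 4× images. Treatment had been applied by pin tool the day after seeding as one drug alone or as a fixed anchor-drug dose with five library-drug doses (not always all listed) in √10 steps. Relative viability is the nuclei count of treated wells divided by that of vehicle wells, and values are medians of duplicate plates.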

[2] = compound: Nc1ccccc1NC(=O)c1ccc(CNC(=O)OCc2cccnc2)cc1 [Entinostat] + C[C@@H](Oc1cc(-c2cnn(C3CCNCC3)c2)cnc1N)c1c(Cl)ccc(F)c1Cl [Crizotinib] (partner 1 µM)
Procedure, shortened: as §1

[3] = compound: Nc1ccccc1NC(=O)c1ccc(CNC(=O)OCc2cccnc2)cc1 [Entinostat] + Cc1cc(Nc2cc(N3CCN(C)CC3)nc(Sc3ccc(NC(=O)C4CC4)cc3)n2)n[nH]1 [Tozasertib] (partner 0.1 µM)
Procedure, shortened: as §1

[4] = compound: Nc1ccccc1NC(=O)c1ccc(CNC(=O)OCc2cccnc2)cc1 [Entinostat] + O=C(c1cc(Cc2n[nH]c(=O)c3ccccc23)ccc1F)N1CCN(C(=O)C2CC2)CC1 [Olaparib] (partner 8 µM)
Procedure, shortened: as §1

Cell Line UMC-11 has a relative viability ([1]; first compound 0.08 µM) of 0.741, a relative viability ([1]; first compound 0.8 µM) of 0.809 and a relative viability ([1]; first compound 2.53 µM) of 0.647. It also gave a relative viability ([1]; first compound 8 µM) of 0.688, a relative viability ([2]; first compound 0.02 µM) of 0.623 and a relative viability ([2]; first compound 0.06325 µM) of 0.646. For the same cell line, the relative viability ([2]; first compound 0.2 µM) was 0.363, the relative viability ([2]; first compound 0.6325 µM) was 0.109 and the relative viability ([2]; first compound 2 µM) was 0.0765. The relative viability ([3]; first compound 0.02 µM) was 0.218, the relative viability ([3]; first compound 0.06325 µM) was 0.201 and the relative viability ([3]; first compound 0.2 µM) was 0.206. For the same cell line, the relative viability ([3]; first compound 0.6325 µM) was 0.192, the relative viability ([3]; first compound 2 µM) was 0.163 and the relative viability ([4]; first compound 0.02 µM) was 0.376. For the same cell line, the relative viability ([4]; first compound 0.06325 µM) was 0.345, the relative viability ([4]; first compound 0.2 µM) was 0.242 and the relative viability ([4]; first compound 0.6325 µM) was 0.116. The relative viability ([4]; first compound 2 µM) was 0.0922.
